One molecule from paper PMC6265484, “Homodimerization regulates an endothelial specific signature of the SOX18 transcription factor” (Nucleic Acids Research, 2018) can be followed below.

In general, IC50 refers to the concentration that gives 50% inhibition. Lower therefore signals greater potency in that assay.

In the experiment the target is T1, SOX18 (GFP-SOX18 / SOX18-Cherry-myc homodimer) (Homo sapiens, UniProt P35713).
T1 construct: full-length human SOX18, synthetic gene; N-terminal GFP-tagged and C-terminal Cherry-cMyc-tagged copies co-expressed cell-free in Leishmania tarentolae extract, not purified; homodimer
T1 sequence (P35713 1-384): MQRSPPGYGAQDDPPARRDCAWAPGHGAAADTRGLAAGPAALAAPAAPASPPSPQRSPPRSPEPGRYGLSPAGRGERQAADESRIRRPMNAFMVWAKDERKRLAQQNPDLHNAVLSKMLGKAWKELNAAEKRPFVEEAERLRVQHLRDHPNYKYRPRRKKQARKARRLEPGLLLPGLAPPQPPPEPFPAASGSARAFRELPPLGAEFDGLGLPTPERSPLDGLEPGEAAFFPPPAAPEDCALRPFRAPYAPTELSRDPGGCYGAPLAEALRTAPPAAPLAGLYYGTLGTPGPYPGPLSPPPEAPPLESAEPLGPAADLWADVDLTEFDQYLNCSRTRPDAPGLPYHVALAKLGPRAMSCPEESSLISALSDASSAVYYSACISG
Description: AlphaScreen disruption of SOX18-SOX18 homodimer in cell-free lysate. It is filed as biochemical. Conditions: protein-protein interaction disruption; no IR5 DNA; buffer B (25 mM HEPES, 50 mM NaCl, 0.001% NP40, 0.001% casein); 1 h; 0.7% DMSO. (Alpha assays give light when donor and acceptor beads are brought close together.)

Molecules are shown by their SMILES.

For `O=C(O)c1c(O)cccc1CCc1ccc2ccccc2c1` [Sm4], the 50% inhibitory concentration (IC50) was ~3000 nM.
